Measured values as given in paper PMC3524758, “Development and evaluation of a novel radioiodinated vesamicol analog as a sigma receptor imaging agent” (EJNMMI Research, 2012).
Several values for one entry are separate records, joined by “and”; a condition that tells them apart may be missing. Identical values can stand only once. Marks after values point to notes of the source that are not given here.

Experiments:
[1] = Biodistribution in DU-145 tumor-bearing mice; assay type: in vivo; settings: i.v., mean (SD)
Procedure: (+)-^131I]pIV was prepared using a method described previously. To produce tumors, approximately 5 × 10^6 of the prepared DU-145 cells was injected subcutaneously into the right dorsum of 4-week-old male BALB/c nude mice (15 to 19 g, Japan SLC, Inc.). Biodistribution experiments were performed at approximately 14- to 21-day post-inoculation, i.e., when tumors reached a palpable size. Groups of four mice were intravenously administered with 100 μL of a mixed solution of (+)-^125I]IV-OH (37 kBq) and (+)-^131I]pIV (37 kBq). At 10-min, 1-, 3-, and 24-h post-injections, the mice were killed. Tissues of interest were removed and weighed, and radioactivity counts were determined with an auto well gamma counter and corrected for background radiation. A window from 16 to 71 keV was used for measuring ^125I and one from 300 to 433 keV for ^131I. The crossover of ^125I activity into the ^131I channel was negligible. Correlation factors to eliminate any crossover of ^131I activity into ^125I were determined by measuring the ^131I standard in both windows.

[2] = Partition coefficient (1-octanol / 0.02-M phosphate buffer); assay type: physicochemical
Procedure: The partition coefficient of (+)-^125I]IV-OH was measured as described previously.

[3] = tested on: DU-145 prostate cancer cell lines; test: Cellular uptake and washout experiments in vitro; assay type: cell-based; settings: DU-145 cells
Procedure: Radiotracer uptake studies were performed in monolayer cultures of DU-145 prostate cancer cell lines, which were obtained from ATCC (Manassas, VA, USA). Cells were grown in cell culture dishes in RPMI 1640 medium with phenol red, 10% heat-inactivated fetal bovine serum (FBS), 100-μg/mL glutamine, 100-units/mL penicillin, and 100-μg/mL streptomycin at 37°C in a humidified atmosphere of 95% air and 5% carbon dioxide. Cells were plated on 6-well tissue culture plates (4 × 10^5 cells/well) for 24 h before the study and incubated at 37°C in the culture medium without FBS containing (+)-^125I]IV-OH or (+)-^125I]pIV (3.7 kBq/well), which was prepared by a method of a previous study for different time intervals (15, 30, 60, and 120 min). For the washout experiment, tumor cells exposed to a medium containing (+)-^125I]IV-OH or (+)-^125I]pIV for 60 min were washed with phosphate buffered saline (PBS) and incubated in fresh (nonradioactive) medium without FBS at 37°C for 15, 30, and 60 min. […] After incubation, cells were washed twice with ice-cold PBS and resolved by adding 0.5 mL of 1-M NaOH. The solutions were then collected and the radioactivity was determined with an auto well gamma counter (ARC-380; Aloka) and corrected for background radiation. The radioactivity of each sample was normalized for the protein level, which was determined using a Protein Assay Bicinchoninate Kit (Nacalai Tesque).

[4] = Metabolite analysis in blood, tumor and other tissues (TLC); assay type: in vivo, mice; settings: i.v., mean (SD) three samples
Procedure: For metabolite analysis, the above-mentioned DU-145 tumor-bearing mice were intravenously administered with 100 μL of (+)-[^125I]IV-OH (3.7 MBq). At 10-min and 1-h post-injections, the mice were killed. Blood was collected and tissues of interest were removed. The blood was centrifuged at 1,000×g for 10 min at 4°C. After the plasma was collected, an equivalent volume of acetonitrile/water mixture (1:1) was added to the plasma. The mixture was centrifuged at 1,000×g for 10 min at 4°C. The tissues of interest (0.2 to 0.5 g) were homogenized in 1 mL of acetonitrile-water mixture (1:1). Each homogenized sample was centrifuged at 1,000×g for 10 min at 4°C. The supernatants were analyzed by TLC with a chloroform/methanol mixture (5:1) as a developing solvent. TLC plates were exposed to phosphor imaging plates (BAS IP SR 2025 E, Fujifilm, Tokyo, Japan) for 48 h. The exposed imaging plates were evaluated using an imaging scanner (BAS 5000 Bio-Imaging Analyzer, Fujifilm).

Oc1ccc(C2CCN(C3CCCCC3O)CC2)cc1[125I] (single isomer, unassigned; (+)) [(+)-[^125I]IV-OH]
Biodistribution of radioactivity, Blood ([1]; 10 min post-injection): 1.28 (0.13)* percent injected dose per gram tissue | Biodistribution of radioactivity, Blood ([1]; 1 h post-injection): 1.04 (0.10)* percent injected dose per gram tissue | Biodistribution of radioactivity, Blood ([1]; 3 h post-injection): 0.43 (0.09)** percent injected dose per gram tissue | Biodistribution of radioactivity, Blood ([1]; 24 h post-injection): 0.00 (0.00)* percent injected dose per gram tissue | Biodistribution of radioactivity, Brain ([1]; 10 min post-injection): 5.14 (0.50)* percent injected dose per gram tissue | Biodistribution of radioactivity, Brain ([1]; 1 h post-injection): 1.04 (0.08)* percent injected dose per gram tissue | Biodistribution of radioactivity, Brain ([1]; 3 h post-injection): 0.22 (0.02)* percent injected dose per gram tissue | Biodistribution of radioactivity, Brain ([1]; 24 h post-injection): 0.00 (0.00)* percent injected dose per gram tissue | Biodistribution of radioactivity, Heart ([1]; 10 min post-injection): 3.57 (0.40)* percent injected dose per gram tissue | Biodistribution of radioactivity, Heart ([1]; 1 h post-injection): 0.78 (0.05)* percent injected dose per gram tissue | Biodistribution of radioactivity, Heart ([1]; 3 h post-injection): 0.27(0.00)** percent injected dose per gram tissue | Biodistribution of radioactivity, Heart ([1]; 24 h post-injection): 0.01 (0.01)* percent injected dose per gram tissue | Biodistribution of radioactivity, Intestine ([1]; 10 min post-injection): 5.26 (0.61)* percent injected dose per gram tissue | Biodistribution of radioactivity, Intestine ([1]; 1 h post-injection): 7.96 (0.72)* percent injected dose per gram tissue | Biodistribution of radioactivity, Intestine ([1]; 3 h post-injection): 4.84 (0.95) percent injected dose per gram tissue | Biodistribution of radioactivity, Intestine ([1]; 24 h post-injection): 0.14 (0.02)* percent injected dose per gram tissue | Biodistribution of radioactivity, Kidney ([1]; 10 min post-injection): 35.01 (2.83)* percent injected dose per gram tissue | Biodistribution of radioactivity, Kidney ([1]; 1 h post-injection): 15.30 (1.80) percent injected dose per gram tissue | Biodistribution of radioactivity, Kidney ([1]; 3 h post-injection): 4.89 (0.87)** percent injected dose per gram tissue | Biodistribution of radioactivity, Kidney ([1]; 24 h post-injection): 0.04 (0.01)* percent injected dose per gram tissue | Biodistribution of radioactivity, Liver ([1]; 10 min post-injection): 7.82 (0.32)* percent injected dose per gram tissue | Biodistribution of radioactivity, Liver ([1]; 1 h post-injection): 9.80 (0.94)** percent injected dose per gram tissue | Biodistribution of radioactivity, Liver ([1]; 3 h post-injection): 2.81 (0.33)* percent injected dose per gram tissue | Biodistribution of radioactivity, Liver ([1]; 24 h post-injection): 0.06 (0.03)* percent injected dose per gram tissue | Biodistribution of radioactivity, Lung ([1]; 10 min post-injection): 9.74 (1.59)* percent injected dose per gram tissue | Biodistribution of radioactivity, Lung ([1]; 1 h post-injection): 1.85 (0.18)* percent injected dose per gram tissue | Biodistribution of radioactivity, Lung ([1]; 3 h post-injection): 0.63 (0.11)* percent injected dose per gram tissue | Biodistribution of radioactivity, Lung ([1]; 24 h post-injection): 0.01 (0.02)* percent injected dose per gram tissue | Biodistribution of radioactivity, Muscle ([1]; 10 min post-injection): 2.20 (0.58) percent injected dose per gram tissue | Biodistribution of radioactivity, Muscle ([1]; 1 h post-injection): 0.45 (0.03)* percent injected dose per gram tissue | Biodistribution of radioactivity, Muscle ([1]; 3 h post-injection): 0.26 (0.10) percent injected dose per gram tissue | Biodistribution of radioactivity, Muscle ([1]; 24 h post-injection): 0.01 (0.01)* percent injected dose per gram tissue | Biodistribution of radioactivity, Pancreas ([1]; 10 min post-injection): 25.04 (2.40)* percent injected dose per gram tissue | Biodistribution of radioactivity, Pancreas ([1]; 1 h post-injection): 12.80 (0.97)* percent injected dose per gram tissue | Biodistribution of radioactivity, Pancreas ([1]; 3 h post-injection): 2.94 (0.49)* percent injected dose per gram tissue | Biodistribution of radioactivity, Pancreas ([1]; 24 h post-injection): 0.01 (0.01)* percent injected dose per gram tissue | Biodistribution of radioactivity, Spleen ([1]; 10 min post-injection): 8.11 (1.24) percent injected dose per gram tissue | Biodistribution of radioactivity, Spleen ([1]; 1 h post-injection): 1.84 (0.11)* percent injected dose per gram tissue | Biodistribution of radioactivity, Spleen ([1]; 3 h post-injection): 0.60 (0.12)* percent injected dose per gram tissue | Biodistribution of radioactivity, Spleen ([1]; 24 h post-injection): 0.01 (0.02)* percent injected dose per gram tissue | Biodistribution of radioactivity, Stomach ([1]; 10 min post-injection): 1.18 (0.36) percent injected dose | Biodistribution of radioactivity, Stomach ([1]; 1 h post-injection): 0.62 (0.18) percent injected dose | Biodistribution of radioactivity, Stomach ([1]; 3 h post-injection): 0.55 (0.25) percent injected dose | Biodistribution of radioactivity, Stomach ([1]; 24 h post-injection): 0.03 (0.02)* percent injected dose | Biodistribution of radioactivity, Tumor ([1]; 10 min post-injection): 9.55 (0.64)** percent injected dose per gram tissue | Biodistribution of radioactivity, Tumor ([1]; 1 h post-injection): 5.45 (0.70) percent injected dose per gram tissue | Biodistribution of radioactivity, Tumor ([1]; 3 h post-injection): 2.57 (0.41) percent injected dose per gram tissue | Biodistribution of radioactivity, Tumor ([1]; 24 h post-injection): 0.06 (0.04)** percent injected dose per gram tissue | log P [2]: 1.13 ± 0.01 | time at which uptake was saturated [3]: 30 min | accumulation in the presence of haloperidol ([3]; haloperidol 10 μM in culture medium): remarkably lessened | intracellular radioactivity released into the supernatant ([3]; within 60 min after medium replacement, specific uptake): Approximately 71% | percent of intact (+)-[^125I]IV-OH, Blood ([4]; 10 min post-injection): 17.0 (9.0) percent | percent of intact (+)-[^125I]IV-OH, Blood ([4]; 1 h post-injection): 0.9% and 0.9 (1.0) percent | percent of intact (+)-[^125I]IV-OH, Brain ([4]; 10 min post-injection): 96.4 (1.1) percent | percent of intact (+)-[^125I]IV-OH, Brain ([4]; 1 h post-injection): 73.7 (8.4) percent | percent of intact (+)-[^125I]IV-OH, Kidney ([4]; 10 min post-injection): 19.8 (3.7) percent | percent of intact (+)-[^125I]IV-OH, Kidney ([4]; 1 h post-injection): 2.6% and 2.6 (1.8) percent | percent of intact (+)-[^125I]IV-OH, Liver ([4]; 10 min post-injection): 5.4 (7.4) percent | percent of intact (+)-[^125I]IV-OH, Liver ([4]; 1 h post-injection): 0.1% and 0.1 (0.2) percent | percent of intact (+)-[^125I]IV-OH, Tumor ([4]; 10 min post-injection): 93.1 (4.3) percent | percent of intact (+)-[^125I]IV-OH, Tumor ([4]; 1 h post-injection): 70.2 (5.6) percent
